Values of other authors, collected in patent publication US20170119663A1, “NOVEL GASTRO-RETENTIVE DOSAGE FORMS” (Grünenthal GmbH, priority 2010, published 2017).
Read-outs that look alike come from different tables or passages of the source.

Row | Compound | oral bioavailability (dose in the range of 300-400 mg) | oral bioavailability (dose of 1600 mg) | absorption window (small intestine and ascending colon)
1 | NCC1(CC(=O)O)CCCCC1 [gabapentin] | approximately 60% | 35% | –
2 | CC(C)C[C@H](CN)CC(=O)O [pregabalin] | – | – | around six
